Measured values published in ChEMBL document CHEMBL1201862, “PubChem BioAssay data set” (2004).
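In this assay, cells in 96-well plates receive the compound at five concentrations for 48 hours. Endpoints are linearly interpolated between the surrounding concentrations. GI50: concentration for 50% inhibition of growth.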 Activity calls are given as the source filed them. No stated cut-off is given here; in the data, active = GI50 up to about 1.1 µM and inactive = higher. Square brackets hold non-standard residues; d marks the D form. Peptide text beside a SMILES is read from it. * marks the point of attachment. Boc = CC(C)(C)OC(=O)*; OBn = c1ccc(CO*)cc1

Experiments:
Experiment in all cases: NCI-60 cell line screen, 48 h
OVCAR-3 = system: OVCAR-3
NCI-H522 = system: NCI-H522
NCI/ADR-RES = system: NCI/ADR-RES
OVCAR-8 = system: OVCAR-8
SNB-19 = system: SNB-19
SK-MEL-2 = system: SK-MEL-2
HL-60 = system: HL-60
LOX IMVI = system: LOX IMVI
UO-31 = system: UO-31
Hs-578T = system: Hs-578T
EKVX = system: EKVX
COLO 205 = system: COLO 205
CCRF-CEM = system: CCRF-CEM
SF-295 = system: SF-295
MOLT-4 = system: MOLT-4
SN12C = system: SN12C
TK-10 = system: TK-10
HT-29 = system: HT-29
CAKI-1 = system: CAKI-1
NCI-H460 = system: NCI-H460

SMILES	GI50 (OVCAR-3)	GI50 (NCI-H522)	GI50 (NCI/ADR-RES)	GI50 (OVCAR-8)	GI50 (SNB-19)	GI50 (SK-MEL-2)	GI50 (HL-60)	GI50 (LOX IMVI)	GI50 (UO-31)	GI50 (Hs-578T)	GI50 (EKVX)	GI50 (COLO 205)	GI50 (CCRF-CEM)	GI50 (SF-295)	GI50 (MOLT-4)	GI50 (SN12C)	GI50 (TK-10)	GI50 (HT-29)	GI50 (CAKI-1)	GI50 (NCI-H460)
CCSc1n/c(=C\c2ccco2)c2nncn12	> 100 µM (inactive)	> 100 µM (inactive)	> 100 µM (inactive)	> 100 µM (inactive)	> 100 µM (inactive)	> 100 µM (inactive)	> 100 µM (inactive)	> 100 µM (inactive)	> 100 µM (inactive)	> 100 µM (inactive)	> 100 µM (inactive)	> 100 µM (inactive)	> 100 µM (inactive)	> 100 µM (inactive)	> 100 µM (inactive)	> 100 µM (inactive)	> 100 µM (inactive)	> 100 µM (inactive)	–	–
COc1cc(C2S/C(=C/c3ccccc3)C(=O)N2c2ccc(Cl)cc2)cc(OC)c1OC (stereo not given)	26.4 µM (inactive)	0.656 µM (active)	16.9 µM (inactive)	22.1 µM (inactive)	> 88.7 µM (inactive)	7.98 µM (inactive)	23.2 µM (inactive)	6.03 µM (inactive)	–	32.3 µM (inactive)	23.8 µM (inactive)	0.617 µM (active)	4.4 µM (inactive)	7.64 µM (inactive)	5.79 µM (inactive)	39.1 µM (inactive)	> 100 µM (inactive)	23.8 µM (inactive)	20.9 µM (inactive)	–
CCC[C@H](N[S+]([O-])c1ccc(C)cc1)C(C(=O)OCC)=C(c1ccccc1)c1ccccc1 (stereo not given in full)	–	17.3 µM (inactive)	27.7 µM (inactive)	27.4 µM (inactive)	44.3 µM (inactive)	14.5 µM (inactive)	21.4 µM (inactive)	18.1 µM (inactive)	14.8 µM (inactive)	25.8 µM (inactive)	18.2 µM (inactive)	22.2 µM (inactive)	26 µM (inactive)	17.8 µM (inactive)	16.2 µM (inactive)	19.8 µM (inactive)	28.6 µM (inactive)	13.9 µM (inactive)	13.3 µM (inactive)	17 µM (inactive)
O=c1oc(-c2ccc(O)cc2)cc2cc(O)ccc12	27.5 µM (inactive)	25.8 µM (inactive)	19.7 µM (inactive)	41.9 µM (inactive)	20.6 µM (inactive)	33.3 µM (inactive)	18.5 µM (inactive)	–	13.3 µM (inactive)	23.6 µM (inactive)	31.9 µM (inactive)	20.2 µM (inactive)	20.4 µM (inactive)	39.4 µM (inactive)	18.5 µM (inactive)	17.2 µM (inactive)	41.6 µM (inactive)	–	29.1 µM (inactive)	22.6 µM (inactive)
CC(=O)[C@]12OC(=O)C3=C1[C@H](CC[C@@H]3C)[C@@H](C)C[C@H]2C=C(C)C	7.31 µM (inactive)	5.36 µM (inactive)	9.12 µM (inactive)	8.49 µM (inactive)	8.09 µM (inactive)	7.82 µM (inactive)	7.71 µM (inactive)	7.93 µM (inactive)	8.22 µM (inactive)	8.18 µM (inactive)	–	8.79 µM (inactive)	9.44 µM (inactive)	6.4 µM (inactive)	10 µM (inactive)	8.69 µM (inactive)	–	6.79 µM (inactive)	6.49 µM (inactive)	8.63 µM (inactive)
C=Cc1c(C)c(OC)cc2c1Oc1ccc(OC)c(C)c1CC2	–	88.5 µM (inactive)	49.1 µM (inactive)	> 100 µM (inactive)	> 100 µM (inactive)	> 100 µM (inactive)	> 100 µM (inactive)	–	> 100 µM (inactive)	> 100 µM (inactive)	45.7 µM (inactive)	> 100 µM (inactive)	> 100 µM (inactive)	> 100 µM (inactive)	> 100 µM (inactive)	> 100 µM (inactive)	> 100 µM (inactive)	> 100 µM (inactive)	> 100 µM (inactive)	> 100 µM (inactive)
Cn1ccc(C(=O)NCCN(CCNC(=O)c2ccn(C)c(=O)c2O)CCNC(=O)c2cccc(=O)n2O)c(O)c1=O	> 100 µM (inactive)	> 100 µM (inactive)	> 100 µM (inactive)	> 100 µM (inactive)	> 100 µM (inactive)	> 100 µM (inactive)	> 100 µM (inactive)	> 100 µM (inactive)	> 100 µM (inactive)	> 100 µM (inactive)	–	> 100 µM (inactive)	> 100 µM (inactive)	> 100 µM (inactive)	–	> 100 µM (inactive)	–	> 100 µM (inactive)	> 100 µM (inactive)	> 100 µM (inactive)
CC(C)(CN1CCCCC1)C(=O)CC(SCCS(=O)(=O)O)c1ccc(Cl)cc1 (stereo not given)	5.22 µM (inactive)	2.51 µM (inactive)	5.97 µM (inactive)	3.23 µM (inactive)	14.8 µM (inactive)	2.22 µM (inactive)	6.18 µM (inactive)	–	4.86 µM (inactive)	3.2 µM (inactive)	3.67 µM (inactive)	2.86 µM (inactive)	2.74 µM (inactive)	0.925 µM (active)	2.92 µM (inactive)	4.56 µM (inactive)	6.32 µM (inactive)	3.52 µM (inactive)	6.73 µM (inactive)	6.41 µM (inactive)
C1CCCCC2(CCCCCCCCC3(CCC1)SCCS3)SCCS2	> 100 µM (inactive)	> 100 µM (inactive)	> 100 µM (inactive)	> 100 µM (inactive)	> 100 µM (inactive)	> 100 µM (inactive)	> 100 µM (inactive)	> 100 µM (inactive)	–	> 100 µM (inactive)	> 100 µM (inactive)	> 100 µM (inactive)	–	> 100 µM (inactive)	–	> 100 µM (inactive)	> 100 µM (inactive)	> 100 µM (inactive)	> 100 µM (inactive)	> 100 µM (inactive)
CC1(C)Cc2c(c3ccccc3c3nc4c(nc23)c2c(c3ccccc34)OC(C)(C)C2)O1	> 100 µM (inactive)	> 100 µM (inactive)	> 100 µM (inactive)	> 100 µM (inactive)	> 100 µM (inactive)	> 100 µM (inactive)	> 100 µM (inactive)	> 100 µM (inactive)	–	39.4 µM (inactive)	> 100 µM (inactive)	> 100 µM (inactive)	> 100 µM (inactive)	> 100 µM (inactive)	> 100 µM (inactive)	> 100 µM (inactive)	> 100 µM (inactive)	> 100 µM (inactive)	> 100 µM (inactive)	> 100 µM (inactive)
CC1=NN2C(=O)CC(=O)N=C2S1	> 100 µM (inactive)	> 100 µM (inactive)	> 100 µM (inactive)	> 100 µM (inactive)	> 100 µM (inactive)	> 100 µM (inactive)	> 100 µM (inactive)	> 100 µM (inactive)	–	> 100 µM (inactive)	> 100 µM (inactive)	> 100 µM (inactive)	> 100 µM (inactive)	> 100 µM (inactive)	> 100 µM (inactive)	> 100 µM (inactive)	> 100 µM (inactive)	> 100 µM (inactive)	> 100 µM (inactive)	> 100 µM (inactive)
CC(C)=CCc1c(OC(=O)c2c(C)cc(O)cc2O)cc(CO)c(CO)c1O	–	18 µM (inactive)	30.1 µM (inactive)	25 µM (inactive)	8.07 µM (inactive)	21.3 µM (inactive)	4.5 µM (inactive)	16.2 µM (inactive)	12.2 µM (inactive)	20.1 µM (inactive)	32.4 µM (inactive)	17.9 µM (inactive)	> 10 µM (inactive)	17.2 µM (inactive)	16.3 µM (inactive)	18.5 µM (inactive)	26.3 µM (inactive)	21.2 µM (inactive)	5.48 µM (inactive)	17.6 µM (inactive)
O=C(O)C(O)C(O)C(O)C(O)c1nc2ccccc2s1 (stereo not given)	17.5 µM (inactive)	12.3 µM (inactive)	31 µM (inactive)	18.5 µM (inactive)	20.1 µM (inactive)	19.2 µM (inactive)	17.6 µM (inactive)	16.9 µM (inactive)	15.9 µM (inactive)	16.7 µM (inactive)	15.4 µM (inactive)	34.8 µM (inactive)	3.53 µM (inactive)	15.6 µM (inactive)	–	18.7 µM (inactive)	15.9 µM (inactive)	21.2 µM (inactive)	17.7 µM (inactive)	16.3 µM (inactive)
Nc1nc(-c2ccccc2)nc2c1[n+]([O-])c1ccccc1[n+]2[O-]	> 100 µM (inactive)	> 100 µM (inactive)	> 100 µM (inactive)	> 100 µM (inactive)	> 100 µM (inactive)	> 100 µM (inactive)	> 100 µM (inactive)	> 100 µM (inactive)	> 100 µM (inactive)	> 100 µM (inactive)	> 100 µM (inactive)	> 100 µM (inactive)	> 100 µM (inactive)	> 100 µM (inactive)	–	> 100 µM (inactive)	> 100 µM (inactive)	> 100 µM (inactive)	> 100 µM (inactive)	> 100 µM (inactive)
C[C@@H](NC(=O)CNC(=O)OC(C)(C)C)C(=O)N[C@@H](Cc1ccccc1)C(=O)OCc1ccccc1 (Boc-Gly-[dA]-Phe-OBn)	–	26.3 µM (inactive)	> 100 µM (inactive)	> 100 µM (inactive)	> 100 µM (inactive)	26.7 µM (inactive)	35.1 µM (inactive)	20.6 µM (inactive)	51.2 µM (inactive)	22.3 µM (inactive)	97.7 µM (inactive)	18.2 µM (inactive)	19.5 µM (inactive)	> 100 µM (inactive)	15 µM (inactive)	> 100 µM (inactive)	> 100 µM (inactive)	90.4 µM (inactive)	> 100 µM (inactive)	–
